Experimental findings from patent publication US6861233B1, “Method of screening for triacyglycerol hydrolase inhibitors” (Glaxo Group Limited, priority 1999, dated 2005) are described below.

Structures are written as SMILES.

For one assay, the target named is T1, human liver TGH (Homo sapiens, UniProt P23141).
T1 construct: the enzyme from microsomal membranes of liver tissues was solubilised by the zwitterionic detergent; from tissue; host or cells: human liver (microsomal membranes)
T1 sequence (P23141 21-567 limits assumed): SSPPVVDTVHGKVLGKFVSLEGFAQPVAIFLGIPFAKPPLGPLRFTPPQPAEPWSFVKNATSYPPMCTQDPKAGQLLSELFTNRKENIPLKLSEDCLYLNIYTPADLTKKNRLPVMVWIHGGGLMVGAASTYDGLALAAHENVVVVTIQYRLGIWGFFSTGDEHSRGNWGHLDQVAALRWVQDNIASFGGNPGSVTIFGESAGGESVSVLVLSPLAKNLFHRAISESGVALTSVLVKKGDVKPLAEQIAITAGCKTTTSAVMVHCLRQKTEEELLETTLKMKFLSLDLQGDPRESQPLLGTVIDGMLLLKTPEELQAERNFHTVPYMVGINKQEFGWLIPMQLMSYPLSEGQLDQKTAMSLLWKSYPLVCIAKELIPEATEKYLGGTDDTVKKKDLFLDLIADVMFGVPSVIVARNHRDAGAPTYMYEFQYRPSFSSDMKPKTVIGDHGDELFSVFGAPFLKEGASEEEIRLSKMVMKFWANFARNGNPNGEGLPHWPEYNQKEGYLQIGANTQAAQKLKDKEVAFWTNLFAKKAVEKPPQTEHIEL
Briefly: Effect of test agents on human liver TGH (4-methylumbelliferyl butyrate fluorogenic substrate). The class given is biochemical. Particulars: purified human liver TGH 1.16 nM, 15-min pre-incubation, 4-MU-butyrate substrate; read-out: concentration which resulted in 50% inhibition of TGH. The method, then: Human liver TGH was purified according to Lehner and Verger's protocol described for the porcine liver TGH [13). Briefly, the enzyme from microsomal membranes of liver tissues was solubilised by the zwitterionic detergent 3-[(3 cholamidopropyl)dimethylammonio]-1-propanesulfonate (CHAPS) and was purified to apparent homogeneity by sequential chromatography on Q-sepharose and hydroxyapatite.
The enzymatic activity of TGH was evaluated with the fluorogenic substrate 4-methylumbelliferyl butyrate (4-MU-butyrate). Briefly, 10 μl of a solution of 25 mM of 4-MU-butyrate in tetrahydrofuran was injected in 2 ml of a buffer containing Tris (20 mM), pH 8.0, EDTA (1 mM) and taurodeoxycholate (300 μM). TGH activity was assayed at 1.16 nM in a final volume of 100 μl. The compound was dissolved in DMSO to be tested at various concentrations (from 1 nM to 2 μM) and was incubated with the enzyme 15-min prior to the addition of 20 μl of the substrate, which gives the starting point of the enzymatic reaction. […]
The basal level of fluorescence of the substrate was evaluated in a reaction mixture of 70 μl of buffer, 10 μl of DMSO (at the appropriate dilution) and 20 μl of substrate, and was subtracted from each other data. Rates of lipolysis were determined from continuous increase in fluorescence intensity at 460 nm (Excitation: 355 nm).

The target in assay [1] is T2, lipoprotein lipase (LPL) from bovine milk (Bos taurus, UniProt P11151).
T2 construct: lipoprotein lipase (LPL) from bovine milk; from tissue; host or cells: bovine milk
T2 sequence (P11151 29-478): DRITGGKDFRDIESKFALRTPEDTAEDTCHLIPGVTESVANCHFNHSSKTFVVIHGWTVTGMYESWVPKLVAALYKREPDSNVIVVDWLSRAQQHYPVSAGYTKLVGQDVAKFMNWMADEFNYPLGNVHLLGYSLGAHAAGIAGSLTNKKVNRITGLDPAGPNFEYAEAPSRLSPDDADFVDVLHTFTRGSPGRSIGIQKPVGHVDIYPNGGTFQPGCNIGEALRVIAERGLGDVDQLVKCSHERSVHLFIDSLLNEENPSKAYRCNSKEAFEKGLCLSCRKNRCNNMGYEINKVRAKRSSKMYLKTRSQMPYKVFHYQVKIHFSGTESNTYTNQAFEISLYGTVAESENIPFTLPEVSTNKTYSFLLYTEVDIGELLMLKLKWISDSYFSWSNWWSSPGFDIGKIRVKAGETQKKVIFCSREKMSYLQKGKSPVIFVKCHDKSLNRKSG
As to the kind of experiment: Effect of TGH inhibitors on lipoprotein lipase activity (radiolabelled trioleoylglycerol hydrolysis). The class given is biochemical. The conditions noted are these: tested at 5 μM, incubated with the enzyme 15-min prior to substrate. The method, then: In order to evaluate the specificity of TGH inhibitors toward TGH, test compound was tested on the enzymatic activity of lipoprotein lipase (LPL) from bovine milk. For this purpose radiolabelled trioleoylglycerol (250 μM, specific activity 1 mCi/mmole) was emulsified in mixture of 10% gum arabic by sonication. Long-chain triacylglycerol hydrolysis was assayed in a final volume of 200 μl containing LPL (1.5 μg/ml), Tris (50 mM), pH 8.0; MgCl2 CaCl2 (1 mM), and 150 mM NaCl with 1 mg/ml BSA as a fatty acid acceptor for 30 min at 37° C. The reaction was terminated with the addition of 3.25 ml of methanol/chloroform/heptane (3.85:3.42:2.73 by volume); 0.3 ml of 150 mM NaCl, lipid carriers (100 μg of unlabelled oleic acid), and 50 μl of 1 N NaOH. The mixture was vortexed and centrifuged. One ml of the upper phase (containing the fatty acids that have been hydrolyzed) was mixed with 10 ml of Cytoscint and counted. Test compound is incubated with the enzyme 15 minutes prior to the addition of the substrate.

In another assay the test system is normal fed hamsters. Briefly: Hypolipidemic activity of the TGH inhibitor in hamster. The class given is in vivo. Particulars: oral, 25 mg/kg twice a day for 3 days. The method, then:
Ten normal fed hamsters were randomly allocated into 2 groups. Animals from one group were orally gavaged with a test TGH inhibitor in DMSOI Labrafil (10/90%), 25 mg/kg, twice a day for 3 days while the animals from the other group were gavaged with the solvent (DMSOI/abrafil) twice a day for 3 days. The animals were sacrificed 4 hours following the last administration and the plasma lipids and lipoproteins were analyzed.
Total cholesterol (TC) and triglyceride (TG) levels in plasma were determined enzymatically with reagents from Bio Merieux. VLDL/LDL lipoprotein fractions were separated from the HDL lipoproteins by gradient centrifugation (d=1.063). Cholesterol in the VLDL/LDL as well as in the HDL fraction was also determined using the Bio Merieux kit. Apolipoprotein B-100 (Apo-B100) in the VLDL/LDL fraction was visualized by using SDS-PAGE under reducing conditions using resolving gels containing a 5% to 12% gradient.

Setting [2] is: 4 hours after last administration.

In the case of `Cc1cccc(NN=C(C(=O)c2cccs2)C(=O)C(F)(F)F)c1` [4,4,4-trifluoro-2-[2-(3-methylphenyl)hydrazono]-1-(2-thienyl)butane-1,3-dione], the IC50 on human liver TGH is 4 nM. Further, in assay [1], the “effect on the enzymatic activity of LPL” value was “did not affect”. In the assay on normal fed hamsters (setting [2]), the HDL cholesterol level result is on record as “not significantly affected”, the “reduction in VLDL/LDL cholesterol (from the solvent treated animals)” value is recorded as 40% and the “reduction in the plasma TG concentration (from the solvent treated animals)” value is −55%. For the same molecule, the “ApoB100 decrease compared to control animals” value with normal fed hamsters (VLDL/LDL fraction, SDS-PAGE) is on record as −39%.
